Measurements published in the OligoGym collection.
HELM strings list units from the 5' end as sugar, base in round brackets, then linkage (d deoxyribose, r ribose, m 2'-O-methyl, p phosphodiester). Strings are as the collection lists them; they lack the last nucleoside at the 3' end of the tested compound. [moe] = 2'-O-(2-methoxyethyl) (MOE); [sp] = phosphorothioate linkage; [m5C] = 5-methylcytosine

Target: UBE3A-ATS
Assay: mouse, dose not given
Details: ASO

Substance	3 h FOB score
RNA1{[moe](A)[sp].[moe]([m5C])p.[moe](A)p.[moe]([m5C])p.[moe](T)p.d(T)[sp].d(T)[sp].d([m5C])[sp].d(A)[sp].d(T)[sp].d([m5C])[sp].d(A)[sp].d(G)[sp].d(T)[sp].d(T)[sp].[moe](A)p.[moe](G)p.[moe](T)[sp].[moe]([m5C])}$$$$ (last 3' nucleoside missing)	1 score 0-7
RNA1{[moe](A)[sp].[moe]([m5C])p.[moe](G)p.[moe]([m5C])[sp].d(A)[sp].d(A)[sp].d(T)[sp].d(G)[sp].d(T)[sp].d(A)[sp].d(T)[sp].d([m5C])[sp].[moe](A)p.[moe](G)p.[moe](G)p.[moe]([m5C])[sp].[moe](A)}$$$$ (last 3' nucleoside missing)	1 score 0-7
RNA1{[moe](A)[sp].[moe]([m5C])p.[moe](G)p.[moe]([m5C])p.[moe](A)[sp].d(A)[sp].d(T)[sp].d(G)[sp].d(T)[sp].d(A)[sp].d(T)[sp].d([m5C])[sp].d(A)[sp].[moe](G)p.[moe](G)p.[moe]([m5C])[sp].[moe](A)}$$$$ (last 3' nucleoside missing)	2.3 score 0-7
RNA1{[moe](A)[sp].[moe]([m5C])p.[moe](G)p.[moe]([m5C])p.[moe](A)p.[moe](A)[sp].d(T)[sp].d(G)[sp].d(T)[sp].d(A)[sp].d(T)[sp].d([m5C])[sp].d(A)[sp].d(G)[sp].[moe](G)p.[moe]([m5C])[sp].[moe](A)}$$$$ (last 3' nucleoside missing)	0 score 0-7
RNA1{[moe](A)[sp].[moe]([m5C])p.[moe](T)p.[moe](A)p.[moe](T)p.d([m5C])[sp].d([m5C])[sp].d(T)[sp].d(G)[sp].d([m5C])[sp].d(A)[sp].d(T)[sp].d([m5C])[sp].d([m5C])[sp].d(G)[sp].[moe](A)p.[moe](G)p.[moe](G)[sp].[moe]([m5C])}$$$$ (last 3' nucleoside missing)	1 score 0-7
RNA1{[moe](A)[sp].[moe]([m5C])p.[moe](T)p.[moe](G)p.[moe](G)p.d([m5C])[sp].d(A)[sp].d(T)[sp].d(A)[sp].d(T)[sp].d(T)[sp].d([m5C])[sp].d([m5C])[sp].d(G)[sp].d(A)[sp].[moe](T)p.[moe](T)p.[moe](A)[sp].[moe](T)}$$$$ (last 3' nucleoside missing)	3 score 0-7
RNA1{[moe](A)[sp].[moe]([m5C])p.[moe](T)p.[moe](G)p.[moe](T)p.d(T)[sp].d(A)[sp].d([m5C])[sp].d([m5C])[sp].d(A)[sp].d(A)[sp].d(G)[sp].d(A)[sp].d([m5C])[sp].d(T)[sp].[moe](T)p.[moe]([m5C])p.[moe](A)[sp].[moe](G)}$$$$ (last 3' nucleoside missing)	3.8 score 0-7
RNA1{[moe](A)[sp].[moe]([m5C])p.[moe](T)p.[moe](G)p.[moe]([m5C])p.[moe](T)p.d(T)[sp].d([m5C])[sp].d(A)[sp].d([m5C])[sp].d([m5C])[sp].d(A)[sp].d(T)[sp].d(T)[sp].d(T)[sp].d(T)[sp].[moe](G)p.[moe](A)[sp].[moe]([m5C])}$$$$ (last 3' nucleoside missing)	1 score 0-7
RNA1{[moe](A)[sp].[moe]([m5C])p.[moe](T)p.[moe](G)p.[moe]([m5C])p.d(T)[sp].d(T)[sp].d([m5C])[sp].d(A)[sp].d([m5C])[sp].d([m5C])[sp].d(A)[sp].d(T)[sp].d(T)[sp].d(T)[sp].[moe](T)p.[moe](G)p.[moe](A)[sp].[moe]([m5C])}$$$$ (last 3' nucleoside missing)	1.7 score 0-7
RNA1{[moe](A)[sp].[moe]([m5C])p.[moe](T)p.[moe](G)p.d([m5C])[sp].d(T)[sp].d(T)[sp].d([m5C])[sp].d(A)[sp].d([m5C])[sp].d([m5C])[sp].d(A)[sp].d(T)[sp].d(T)[sp].[moe](T)p.[moe](T)p.[moe](G)p.[moe](A)[sp].[moe]([m5C])}$$$$ (last 3' nucleoside missing)	1 score 0-7
RNA1{[moe](A)[sp].[moe]([m5C])p.[moe](T)p.[moe](T)p.[moe](T)p.d(A)[sp].d(T)[sp].d(A)[sp].d(G)[sp].d(T)[sp].d(G)[sp].d(T)[sp].d(G)[sp].d(G)[sp].d(A)[sp].[moe](T)p.[moe](G)p.[moe](G)[sp].[moe](T)}$$$$ (last 3' nucleoside missing)	6.8 score 0-7
RNA1{[moe](A)[sp].[moe]([m5C])p.[moe](T)p.[moe](T)p.[moe](T)p.d([m5C])[sp].d(A)[sp].d(T)[sp].d([m5C])[sp].d(A)[sp].d(G)[sp].d(T)[sp].d(T)[sp].d(A)[sp].d(G)[sp].[moe](T)p.[moe]([m5C])p.[moe](A)[sp].[moe](G)}$$$$ (last 3' nucleoside missing)	5.2 score 0-7
RNA1{[moe](A)[sp].[moe]([m5C])p.[moe](T)p.[moe](T)p.[moe]([m5C])p.d(A)[sp].d(T)[sp].d([m5C])[sp].d(A)[sp].d(A)[sp].d(T)[sp].d(A)[sp].d(T)[sp].d(T)[sp].d(T)[sp].[moe]([m5C])p.[moe]([m5C])p.[moe]([m5C])[sp].[moe]([m5C])}$$$$ (last 3' nucleoside missing)	0 score 0-7
RNA1{[moe](A)[sp].[moe]([m5C])p.[moe](T)p.[moe](T)p.[moe]([m5C])p.d(T)[sp].d([m5C])[sp].d(A)[sp].d(T)[sp].d(T)[sp].d([m5C])[sp].d(T)[sp].d([m5C])[sp].d(T)[sp].d([m5C])[sp].[moe]([m5C])p.[moe](A)p.[moe]([m5C])[sp].[moe]([m5C])}$$$$ (last 3' nucleoside missing)	0 score 0-7
RNA1{[moe](A)[sp].[moe]([m5C])p.[moe](T)p.[moe]([m5C])p.[moe](A)p.d(T)[sp].d([m5C])[sp].d(A)[sp].d(T)[sp].d(G)[sp].d(A)[sp].d(T)[sp].d([m5C])[sp].d(T)[sp].d(T)[sp].[moe](G)p.[moe](G)p.[moe](T)[sp].[moe](A)}$$$$ (last 3' nucleoside missing)	3 score 0-7
RNA1{[moe](A)[sp].[moe]([m5C])p.[moe]([m5C])p.[moe](A)p.[moe](T)p.d(T)[sp].d(T)[sp].d(T)[sp].d(G)[sp].d(A)[sp].d([m5C])[sp].d([m5C])[sp].d(T)[sp].d(T)[sp].d([m5C])[sp].[moe](T)p.[moe](T)p.[moe](A)[sp].[moe](G)}$$$$ (last 3' nucleoside missing)	0 score 0-7
RNA1{[moe](A)[sp].[moe]([m5C])p.[moe]([m5C])p.[moe]([m5C])p.[moe]([m5C])p.d(T)[sp].d(A)[sp].d(G)[sp].d(G)[sp].d(A)[sp].d(A)[sp].d(T)[sp].d(A)[sp].d(A)[sp].d(T)[sp].[moe](G)p.[moe](T)p.[moe](T)[sp].[moe](G)}$$$$ (last 3' nucleoside missing)	2 score 0-7
RNA1{[moe](G)[sp].[moe](A)p.[moe](A)p.[moe](A)p.[moe]([m5C])p.d([m5C])[sp].d(A)[sp].d(G)[sp].d([m5C])[sp].d([m5C])[sp].d(A)[sp].d(G)[sp].d(G)[sp].d(T)[sp].d(G)[sp].[moe](T)p.[moe]([m5C])p.[moe](T)[sp].[moe](T)}$$$$ (last 3' nucleoside missing)	3 score 0-7
RNA1{[moe](G)[sp].[moe](A)p.[moe](A)p.[moe]([m5C])p.[moe](T)p.d(A)[sp].d(T)[sp].d([m5C])[sp].d([m5C])[sp].d(T)[sp].d(G)[sp].d([m5C])[sp].d(A)[sp].d(T)[sp].d([m5C])[sp].[moe]([m5C])p.[moe](G)p.[moe](A)[sp].[moe](G)}$$$$ (last 3' nucleoside missing)	4.2 score 0-7
RNA1{[moe](G)[sp].[moe](A)p.[moe](G)p.[moe](A)p.[moe](A)p.d([m5C])[sp].d([m5C])[sp].d([m5C])[sp].d(A)[sp].d([m5C])[sp].d(T)[sp].d(T)[sp].d(G)[sp].d(A)[sp].d(T)[sp].[moe]([m5C])p.[moe](T)p.[moe](A)[sp].[moe](T)}$$$$ (last 3' nucleoside missing)	3 score 0-7
RNA1{[moe](G)[sp].[moe](A)p.[moe](G)p.[moe](A)p.[moe](T)p.d(A)[sp].d(G)[sp].d(A)[sp].d(A)[sp].d([m5C])[sp].d(A)[sp].d([m5C])[sp].d(T)[sp].d(T)[sp].d([m5C])[sp].[moe](G)p.[moe]([m5C])p.[moe]([m5C])[sp].[moe](G)}$$$$ (last 3' nucleoside missing)	5 score 0-7
RNA1{[moe](G)[sp].[moe](A)p.[moe](G)p.[moe](A)p.[moe]([m5C])p.d(A)[sp].d(T)[sp].d(G)[sp].d(T)[sp].d(G)[sp].d([m5C])[sp].d([m5C])[sp].d(A)[sp].d(G)[sp].d(T)[sp].[moe](T)p.[moe]([m5C])p.[moe](A)[sp].[moe](A)}$$$$ (last 3' nucleoside missing)	6 score 0-7
RNA1{[moe](G)[sp].[moe](A)p.[moe](G)p.[moe](T)p.[moe](A)p.d(G)[sp].d(T)[sp].d([m5C])[sp].d(T)[sp].d(A)[sp].d(T)[sp].d(T)[sp].d(G)[sp].d(G)[sp].d(T)[sp].[moe](G)p.[moe](T)p.[moe](T)[sp].[moe]([m5C])}$$$$ (last 3' nucleoside missing)	5.5 score 0-7
RNA1{[moe](G)[sp].[moe](A)p.[moe](G)p.[moe](T)p.[moe](A)p.d(T)[sp].d(A)[sp].d(T)[sp].d(T)[sp].d(A)[sp].d([m5C])[sp].d([m5C])[sp].d(T)[sp].d([m5C])[sp].d([m5C])[sp].[moe](A)p.[moe](G)p.[moe](G)[sp].[moe](T)}$$$$ (last 3' nucleoside missing)	1 score 0-7
RNA1{[moe](G)[sp].[moe](A)p.[moe](G)p.[moe]([m5C])[sp].d(T)[sp].d(A)[sp].d(T)[sp].d([m5C])[sp].d(T)[sp].d(G)[sp].d(T)[sp].d(A)[sp].[moe]([m5C])p.[moe](A)p.[moe](A)p.[moe](A)[sp].[moe](A)}$$$$ (last 3' nucleoside missing)	3.3 score 0-7
RNA1{[moe](G)[sp].[moe](A)p.[moe](G)p.[moe]([m5C])p.[moe](A)p.d(T)[sp].d(T)[sp].d(G)[sp].d(G)[sp].d([m5C])[sp].d(T)[sp].d(T)[sp].d([m5C])[sp].d(A)[sp].d(T)[sp].[moe](A)p.[moe](T)p.[moe](T)[sp].[moe](T)}$$$$ (last 3' nucleoside missing)	1 score 0-7
